Entries after “also recorded” stand apart in the source; their conditions may differ. Structures can show the parent of a compound that is named as a salt. Where two headings read alike, the source gives them in different places. Each block holds one compound with its values, some of them ahead of it.
Key:
[1] = room temperature, previously known salt forms, Table 2 (WO 2008/113359), cited from earlier work
[2] = Room temperature (aqueous) solubility of salt forms; assay type: physicochemical; settings: for aqueous solubility: concentration equivalent to free base; for Solubility: lactate forms, Table 1; for pH at the solubility value: printed in the solubility cell
[3] = Crystal form behaviour on exposure to water / aqueous slurry; assay type: physicochemical; settings: exposed to water / aqueous slurry
[4] = depressed patients; cited from earlier work
serotonin transporter = serotonin transporter (Homo sapiens, UniProt P31645); settings: cited from earlier work
Chain of serotonin transporter (P31645 whole entry): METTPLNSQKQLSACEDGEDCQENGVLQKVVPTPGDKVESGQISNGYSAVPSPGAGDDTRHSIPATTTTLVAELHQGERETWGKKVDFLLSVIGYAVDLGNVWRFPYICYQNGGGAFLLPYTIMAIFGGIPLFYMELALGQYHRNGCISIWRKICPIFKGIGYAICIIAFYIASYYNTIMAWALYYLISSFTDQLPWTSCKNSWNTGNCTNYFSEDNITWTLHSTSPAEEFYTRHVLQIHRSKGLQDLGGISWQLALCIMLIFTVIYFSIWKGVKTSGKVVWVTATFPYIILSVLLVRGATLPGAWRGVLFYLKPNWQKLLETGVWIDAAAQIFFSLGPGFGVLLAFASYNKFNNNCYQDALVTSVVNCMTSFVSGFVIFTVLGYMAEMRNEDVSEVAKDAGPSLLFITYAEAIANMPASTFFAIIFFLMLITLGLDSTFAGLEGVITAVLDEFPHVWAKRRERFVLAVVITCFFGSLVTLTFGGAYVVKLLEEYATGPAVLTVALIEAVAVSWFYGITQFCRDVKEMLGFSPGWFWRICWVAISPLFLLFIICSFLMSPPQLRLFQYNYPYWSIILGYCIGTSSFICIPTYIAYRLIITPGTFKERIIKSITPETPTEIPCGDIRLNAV

[5] = test system: extracellular levels of serotonin, noradrenaline, dopamine and acetylcholine; settings: rat brains; cited from earlier work
5-HT3 receptor = biological target: T1, 5-HT3 receptor (Homo sapiens, UniProt P46098); settings: listed as compound I; cited from earlier work
T1 sequence (P46098 24-478): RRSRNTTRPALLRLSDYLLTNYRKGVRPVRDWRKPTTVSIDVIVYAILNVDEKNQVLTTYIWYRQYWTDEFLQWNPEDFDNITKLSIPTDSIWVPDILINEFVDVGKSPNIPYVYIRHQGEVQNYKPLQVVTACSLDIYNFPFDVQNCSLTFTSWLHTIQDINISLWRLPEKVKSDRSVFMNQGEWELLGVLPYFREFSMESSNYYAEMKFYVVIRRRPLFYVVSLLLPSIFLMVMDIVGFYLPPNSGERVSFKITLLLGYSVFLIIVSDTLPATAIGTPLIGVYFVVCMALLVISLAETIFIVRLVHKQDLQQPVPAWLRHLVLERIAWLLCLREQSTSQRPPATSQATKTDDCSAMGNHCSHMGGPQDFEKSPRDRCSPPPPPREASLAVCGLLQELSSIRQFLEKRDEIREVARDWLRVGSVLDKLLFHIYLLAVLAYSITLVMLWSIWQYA

SMILES: Cc1ccc(Sc2ccccc2N2CCNCC2)c(C)c1 [Fumarate, 1-[2-(2,4-dimethyl-phenylsulfanyl)-phenyl] piperazine]
Solubility [1]: 0.4 mg base/mL

SMILES: Cc1ccc(Sc2ccccc2N2CCNCC2)c(C)c1 [Meso-tartrate, 1-[2-(2,4-dimethyl-phenylsulfanyl)-phenyl] piperazine]
Solubility [1]: ~0.7 mg base/mL

SMILES: Cc1ccc(Sc2ccccc2N2CCNCC2)c(C)c1 [Phosphate, 1-[2-(2,4-dimethyl-phenylsulfanyl)-phenyl] piperazine]
Solubility [1]: ~1 mg base/mL

SMILES: Cc1ccc(Sc2ccccc2N2CCNCC2)c(C)c1 [HBr, α-form, 1-[2-(2,4-dimethyl-phenylsulfanyl)-phenyl] piperazine]
Solubility [1]: 2.0 mg base/mL

aqueous solubility [2]: 26 mg/mL | Solubility ([2]; room temperature): 26 mg base/mL | pH at the solubility value ([2]; room temperature): 5.2
SMILES: C[C@H](O)C(=O)O.Cc1ccc(Sc2ccccc2N2CCNCC2)c(C)c1 [L-lactate MH2, 1-[2-(2,4-dimethyl-phenylsulfanyl)-phenyl] Piperazine, L-Lactate]

SMILES: Cc1ccc(Sc2ccccc2N2CCNCC2)c(C)c1 [Maleate, 1-[2-(2,4-dimethyl-phenylsulfanyl)-phenyl] piperazine]
Solubility [1]: ~1 mg base/mL

SMILES: CC(O)C(=O)O.Cc1ccc(Sc2ccccc2N2CCNCC2)c(C)c1 [DL-lactate MH, 1-[2-(2,4-dimethyl-phenylsulfanyl)-phenyl] Piperazine, DL-Lactate]
transformation of crystal form in water [3]: transformed into the beta form in aqueous slurry

SMILES: C[C@H](O)C(=O)O.Cc1ccc(Sc2ccccc2N2CCNCC2)c(C)c1 [L-lactate AH1, 1-[2-(2,4-dimethyl-phenylsulfanyl)-phenyl] Piperazine, L-Lactate]
transformation of crystal form in water ([3]; listed as AH1): transforms into monohydrate when exposed to water

SMILES: Cc1ccc(Sc2ccccc2N2CCNCC2)c(C)c1 [L-(+)-tartrate, 1-[2-(2,4-dimethyl-phenylsulfanyl)-phenyl] piperazine]
Solubility [1]: ~0.4 mg base/mL

SMILES: Cc1ccc(Sc2ccccc2N2CCNCC2)c(C)c1 [HBr, β-form, 1-[2-(2,4-dimethyl-phenylsulfanyl)-phenyl] piperazine]
Solubility [1]: 1.2 mg base/mL

SMILES: CC(O)C(=O)O.Cc1ccc(Sc2ccccc2N2CCNCC2)c(C)c1 [DL-lactate γ, 1-[2-(2,4-dimethyl-phenylsulfanyl)-phenyl] Piperazine, DL-Lactate]
transformation of crystal form in water ([3]; listed as γ form): transforms into the beta form in aqueous slurry

aqueous solubility [2]: 8 mg/mL | Solubility ([2]; room temperature): 8 mg base/mL | pH at the solubility value ([2]; room temperature): 6
SMILES: CC(O)C(=O)O.Cc1ccc(Sc2ccccc2N2CCNCC2)c(C)c1 [DL-lactate β, 1-[2-(2,4-dimethyl-phenylsulfanyl)-phenyl] Piperazine, DL-Lactate]

SMILES: Cc1ccc(Sc2ccccc2N2CCNCC2)c(C)c1 [D-(−)-tartrate, 1-[2-(2,4-dimethyl-phenylsulfanyl)-phenyl] piperazine]
Solubility [1]: ~0.4 mg base/mL

SMILES: CC(O)C(=O)O.Cc1ccc(Sc2ccccc2N2CCNCC2)c(C)c1 [DL-lactate α, 1-[2-(2,4-dimethyl-phenylsulfanyl)-phenyl] piperazine, DL-Lactate]
transformation of crystal form in water ([3]; listed as α form): transformed into the β form in the aqueous slurry

SMILES: Cc1ccc(Sc2ccccc2N2CCNCC2)c(C)c1 [Sulphate, 1-[2-(2,4-dimethyl-phenylsulfanyl)-phenyl] piperazine]
Solubility [1]: ~0.1 mg base/mL

SMILES: Cc1ccc(Sc2ccccc2N2CCNCC2)c(C)c1 [Mesylate, 1-[2-(2,4-dimethyl-phenylsulfanyl)-phenyl] piperazine]
Solubility [1]: >45 mg base/mL

SMILES: Br.Cc1ccc(Sc2ccccc2N2CCNCC2)c(C)c1 [HBr addition salt]
level of sleep and sexually related adverse events [4]: surprisingly low level

Solubility, bound given for a form that could not be measured ([2]; room temperature, MH1 transforms into MH2 in aqueous slurry): na (>26) mg base/mL
SMILES: C[C@H](O)C(=O)O.Cc1ccc(Sc2ccccc2N2CCNCC2)c(C)c1 [L-lactate MH1, 1-[2-(2,4-dimethyl-phenylsulfanyl)-phenyl] Piperazine, L-Lactate]
transformation of crystal form in water ([3]; listed as MH1): transforms into the MH2 in aqueous slurry

SMILES: Cc1ccc(Sc2ccccc2N2CCNCC2)c(C)c1 [HCl, 1-[2-(2,4-dimethyl-phenylsulfanyl)-phenyl] piperazine]
Solubility [1]: 3.0 mg base/mL

SMILES: Cc1ccc(Sc2ccccc2N2CCNCC2)c(C)c1 [HCl, MH, 1-[2-(2,4-dimethyl-phenylsulfanyl)-phenyl] piperazine]
Solubility [1]: 2.0 mg base/mL

SMILES: Cc1ccc(Sc2ccccc2N2CCNCC2)c(C)c1 [Nitrate, 1-[2-(2,4-dimethyl-phenylsulfanyl)-phenyl] piperazine]
Solubility [1]: ~0.8 mg base/mL

SMILES: Cc1ccc(Sc2ccccc2N2CCNCC2)c(C)c1 [Compound I, 1-[2-(2,4-dimethylphenylsulfanyl)phenyl]piperazine]
action at the serotonin transporter (serotonin transporter): inhibition | action at the serotonin transporter (serotonin transporter; listed as compound I): inhibitor | Solubility ([1]; listed as Crystalline base): 0.1 mg base/mL | extracellular levels of serotonin, noradrenaline, dopamine and acetylcholine [5]: increase | action at the 5-HT3 receptor (5-HT3 receptor): antagonist; also recorded: antagonism
